Source: ChEMBL document CHEMBL4368907 (J Med Chem, 2019)
Numbered stars: 1 amine (or outer) side, 2 acyl side, 3 side chain; on linkers, the order of the positions; unused ones are H or OH. Square brackets hold non-standard residues; d marks the D form. Side chains are listed from the residue outwards. Peptide text beside a SMILES is read from it. * marks the point of attachment. Phe(4-CH2SO3H) = N[C@@H](Cc1ccc(CS(=O)(=O)O)cc1)C(=O)O; sY = N[C@@H](Cc1ccc(OS(=O)(=O)O)cc1)C(=O)O; C18 diacid = O=C(O)CCCCCCCCCCCCCCCCC(=O)*; NMe1Nal = CN[C@@H](Cc1cccc2ccccc12)C(=O)O; γGlu = O=C(O)[C@H](CCC(=O)[*:2])N[*:1]; 1Nal = N[C@@H](Cc1cccc2ccccc12)C(=O)O; Hyp = O=C(O)[C@@H]1C[C@@H](O)CN1; NMeF = CN[C@@H](Cc1ccccc1)C(=O)O; NMeD = CN[C@@H](CC(=O)O)C(=O)O; NH(2-Me-phenyl) = Cc1ccccc1N*; Nle = CCCC[C@H](N)C(=O)O; AEEA = NCCOCCOCC(=O)O; CO = O=C([*:1])[*:2]; βAla = NCCC(=O)O

Tests used:
[1] = biological target: T1, Gastrin/cholecystokinin type B receptor (Homo sapiens, UniProt P32239); experiment: Agonist activity at human CCK2R expressed in human 1321N1 cells assessed as IP1 accumulation after 1 hr by HTRF assay; type: functional, cell-based
T1 sequence (P32239 whole entry): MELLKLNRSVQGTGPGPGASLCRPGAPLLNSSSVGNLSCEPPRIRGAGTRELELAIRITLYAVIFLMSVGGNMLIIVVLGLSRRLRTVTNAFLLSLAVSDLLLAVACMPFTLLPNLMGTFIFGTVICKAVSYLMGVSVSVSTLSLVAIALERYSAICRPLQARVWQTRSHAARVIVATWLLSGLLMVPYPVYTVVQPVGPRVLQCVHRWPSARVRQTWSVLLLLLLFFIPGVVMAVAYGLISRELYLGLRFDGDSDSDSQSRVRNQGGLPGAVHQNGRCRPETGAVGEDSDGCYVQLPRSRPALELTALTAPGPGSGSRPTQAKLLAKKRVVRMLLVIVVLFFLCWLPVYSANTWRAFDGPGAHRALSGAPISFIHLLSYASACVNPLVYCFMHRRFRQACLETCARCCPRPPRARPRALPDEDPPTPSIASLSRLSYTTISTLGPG

[2] = biological target: T2, Cholecystokinin receptor type A (Homo sapiens, UniProt P32238); experiment: Agonist activity at human CCK1R expressed in human 1321N1 cells assessed as IP1 accumulation after 1 hr by HTRF assay; type: functional, cell-based
T2 sequence (P32238 whole entry): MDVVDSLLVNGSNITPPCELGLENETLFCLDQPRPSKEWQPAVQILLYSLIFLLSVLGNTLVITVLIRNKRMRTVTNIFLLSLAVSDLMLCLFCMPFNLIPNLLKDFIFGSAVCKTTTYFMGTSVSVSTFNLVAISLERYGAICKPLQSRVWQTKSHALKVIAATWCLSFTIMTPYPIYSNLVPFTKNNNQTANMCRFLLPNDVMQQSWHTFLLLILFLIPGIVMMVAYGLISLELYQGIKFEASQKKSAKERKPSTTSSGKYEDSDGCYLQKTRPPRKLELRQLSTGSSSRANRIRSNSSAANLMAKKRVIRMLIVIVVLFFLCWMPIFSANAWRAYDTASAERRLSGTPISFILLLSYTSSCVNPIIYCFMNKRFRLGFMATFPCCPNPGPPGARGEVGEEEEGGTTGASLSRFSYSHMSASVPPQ

[3] = biological target: T1, Gastrin/cholecystokinin type B receptor; experiment: Displacement of [125I]-CCK-8 from human CCK2R expressed in human 1321N1 cell membranes after 2 hrs by SPA assay
[4] = biological target: T2, Cholecystokinin receptor type A; experiment: Displacement of [125I]-CCK-8 from human CCK1R expressed in human 1321N1 cell membranes after 2 hrs by SPA assay

Structure (SMILES)	EC50 [1] [nM]	EC50 [2] [nM]	IC50 [3] [nM]	IC50 [4] [nM]	pEC50 [1]	pEC50 [2]	pIC50 [3]	pIC50 [4]
CCCC[C@H](NC(=O)[C@H](Cc1c[nH]c2ccccc12)NC(=O)CNC(=O)[C@H](CC(C)C)NC(=O)[C@H](Cc1ccc(CS(=O)(=O)O)cc1)NC(=O)[C@H](CC(=O)O)NC(=O)COCCOCCNC(=O)COCCOCCNC(=O)CC[C@H](NC(=O)CCCCCCCCCCCCCCCCC(=O)O)C(=O)O)C(=O)N[C@@H](CC(=O)O)C(=O)N[C@@H](Cc1ccccc1)C(N)=O ({C18 diacid-γGlu-AEEA-AEEA}-D[Phe(4-CH2SO3H)]LGW[Nle]DF-NH2)	0.447	0.0676	0.891	0.245				
CCCC[C@H](NC(=O)[C@H](Cc1c[nH]c2ccccc12)NC(=O)CNC(=O)[C@H](CCC(=O)O)NC(=O)[C@H](Cc1ccc(OS(=O)(=O)O)cc1)NC(=O)[C@H](CC(=O)O)NC(=O)COCCOCCNC(=O)COCCOCCNC(=O)CC[C@H](NC(=O)CCCCCCCCCCCCCCCCC(=O)O)C(=O)O)C(=O)N[C@@H](CC(=O)O)C(=O)N[C@@H](Cc1ccccc1)C(N)=O ({C18 diacid-γGlu-AEEA-AEEA}-D[sY]EGW[Nle]DF-NH2)	0.295	0.166	0.158	1.26				
CC(C)C[C@H](NC(=O)[C@H](Cc1ccc(OS(=O)(=O)O)cc1)NC(=O)[C@H](CC(=O)O)NC(=O)COCCOCCNC(=O)COCCOCCNC(=O)CC[C@H](NC(=O)CCCCCCCCCCCCCCCCC(=O)O)C(=O)O)C(=O)NCC(=O)N[C@@H](Cc1c[nH]c2ccccc12)C(=O)N[C@@H](Cc1ccccc1)C(=O)N(C)[C@@H](CC(=O)O)C(=O)N(C)[C@@H](Cc1ccccc1)C(N)=O ({C18 diacid-γGlu-AEEA-AEEA}-D[sY]LGWF[NMeD][NMeF]-NH2)					< 6	8.79	< 5	7.79
CCCC[C@H](NC(=O)[C@H](Cc1c[nH]c2ccccc12)NC(=O)CNC(=O)[C@H](CC(C)C)NC(=O)[C@H](Cc1ccc(OS(=O)(=O)O)cc1)NC(=O)[C@H](CC(=O)O)NC(=O)COCCOCCNC(=O)COCCOCCNC(=O)CC[C@H](NC(=O)CCCCCCCCCCCCCCCCC(=O)O)C(=O)O)C(=O)N1CCC[C@H]1C(=O)N(C)[C@@H](Cc1ccccc1)C(N)=O ({C18 diacid-γGlu-AEEA-AEEA}-D[sY]LGW[Nle]P[NMeF]-NH2)					< 6	6.61	5.27	7.39
CCCC[C@H](NC(=O)[C@H](Cc1c[nH]c2ccccc12)NC(=O)CNC(=O)[C@H](CC(C)C)NC(=O)[C@H](Cc1ccc(OS(=O)(=O)O)cc1)NC(=O)[C@H](CC(=O)O)NC(=O)COCCOCCNC(=O)COCCOCCNC(=O)CC[C@H](NC(=O)CCCCCCCCCCCCCCCCC(=O)O)C(=O)O)C(=O)N(C)[C@@H](CC(=O)O)C(=O)N(C)[C@@H](Cc1cccc2ccccc12)C(N)=O ({C18 diacid-γGlu-AEEA-AEEA}-D[sY]LGW[Nle][NMeD][NMe1Nal]-NH2)	16.6	0.501	603	0.115				
CCCC[C@H](NC(=O)[C@H](Cc1c[nH]c2ccccc12)NC(=O)CCNC(=O)[C@H](CC(C)C)NC(=O)[C@H](Cc1ccc(OS(=O)(=O)O)cc1)NC(=O)[C@H](CC(=O)O)NC(=O)COCCOCCNC(=O)COCCOCCNC(=O)CC[C@H](NC(=O)CCCCCCCCCCCCCCCCC(=O)O)C(=O)O)C(=O)N[C@@H](CC(=O)O)C(=O)N[C@@H](Cc1ccccc1)C(N)=O ({C18 diacid-γGlu-AEEA-AEEA}-D[sY]L[βAla]W[Nle]DF-NH2)	0.316	117	0.398	219				
CCCC[C@H](NC(=O)[C@H](Cc1c[nH]c2ccccc12)NC(=O)[C@H](CCC(=O)O)NC(=O)[C@H](CCCC)NC(=O)[C@H](Cc1ccc(OS(=O)(=O)O)cc1)NC(=O)[C@H](CC(=O)O)NC(=O)COCCOCCNC(=O)COCCOCCNC(=O)CC[C@H](NC(=O)CCCCCCCCCCCCCCCCC(=O)O)C(=O)O)C(=O)N[C@@H](CC(=O)O)C(=O)N[C@@H](Cc1ccccc1)C(N)=O ({C18 diacid-γGlu-AEEA-AEEA}-D[sY][Nle]EW[Nle]DF-NH2)	0.437	> 1000	0.151	3980				
CCCC[C@H](NC(=O)[C@H](Cc1ccc(OS(=O)(=O)O)cc1)NC(=O)[C@H](CC(=O)O)NC(=O)COCCOCCNC(=O)COCCOCCNC(=O)CC[C@H](NC(=O)CCCCCCCCCCCCCCCCC(=O)O)C(=O)O)C(=O)NCC(=O)N[C@@H](Cc1c[nH]c2ccccc12)C(=O)N[C@H](C(=O)N[C@@H](CC(=O)O)C(=O)N[C@@H](Cc1ccccc1)C(N)=O)[C@@H](C)CC ({C18 diacid-γGlu-AEEA-AEEA}-D[sY][Nle]GWIDF-NH2)	0.631	0.11	2.14	0.794				
CCCC[C@H](NC(=O)[C@H](Cc1ccc(OS(=O)(=O)O)cc1)NC(=O)[C@H](CC(=O)O)NC(=O)COCCOCCNC(=O)COCCOCCNC(=O)CC[C@H](NC(=O)CCCCCCCCCCCCCCCCC(=O)O)C(=O)O)C(=O)NCC(=O)N[C@@H](Cc1c[nH]c2ccccc12)C(=O)N[C@@H](CCCCNC(=O)Nc1ccccc1C)C(=O)N(C)[C@@H](CC(=O)O)C(=O)N(C)[C@@H](Cc1ccccc1)C(N)=O ({C18 diacid-γGlu-AEEA-AEEA}-D[sY][Nle]GWK([CO-NH(2-Me-phenyl)])[NMeD][NMeF]-NH2)	> 1000	0.115	> 10000	0.479				
CCCC[C@H](NC(=O)[C@H](Cc1ccc(OS(=O)(=O)O)cc1)NC(=O)[C@H](CC(=O)O)NC(=O)COCCOCCNC(=O)COCCOCCNC(=O)CC[C@H](NC(=O)CCCCCCCCCCCCCCCCC(=O)O)C(=O)O)C(=O)NCC(=O)N[C@@H](Cc1c[nH]c2ccccc12)C(=O)N[C@@H](CCC(N)=O)C(=O)N[C@@H](CC(=O)O)C(=O)N[C@@H](Cc1ccccc1)C(N)=O ({C18 diacid-γGlu-AEEA-AEEA}-D[sY][Nle]GWQDF-NH2)	0.417	0.162	2.04	0.933				
CCCC[C@H](NC(=O)[C@H](Cc1ccc(OS(=O)(=O)O)cc1)NC(=O)[C@H](CC(=O)O)NC(=O)COCCOCCNC(=O)COCCOCCNC(=O)CC[C@H](NC(=O)CCCCCCCCCCCCCCCCC(=O)O)C(=O)O)C(=O)NCC(=O)N[C@@H](Cc1c[nH]c2ccccc12)C(=O)N[C@@H](CCCC)C(=O)N[C@@H](CC(=O)O)C(=O)N[C@@H](Cc1c[nH]c2ccccc12)C(N)=O ({C18 diacid-γGlu-AEEA-AEEA}-D[sY][Nle]GW[Nle]DW-NH2)	0.417	0.324	0.132	2.24				
CCCC[C@H](NC(=O)[C@H](Cc1ccc(OS(=O)(=O)O)cc1)NC(=O)[C@H](CC(=O)O)NC(=O)COCCOCCNC(=O)COCCOCCNC(=O)CC[C@H](NC(=O)CCCCCCCCCCCCCCCCC(=O)O)C(=O)O)C(=O)NCC(=O)N[C@@H](Cc1c[nH]c2ccccc12)C(=O)N[C@@H](CCCC)C(=O)N[C@@H](CC(=O)O)C(=O)N[C@@H](Cc1ccc(O)cc1)C(N)=O ({C18 diacid-γGlu-AEEA-AEEA}-D[sY][Nle]GW[Nle]DY-NH2)	0.324	0.977	0.132	9.12				
CCCC[C@H](NC(=O)[C@H](Cc1ccc(OS(=O)(=O)O)cc1)NC(=O)[C@H](CC(=O)O)NC(=O)COCCOCCNC(=O)COCCOCCNC(=O)CC[C@H](NC(=O)CCCCCCCCCCCCCCCCC(=O)O)C(=O)O)C(=O)NCC(=O)N[C@@H](Cc1c[nH]c2ccccc12)C(=O)N[C@@H](CCCC)C(=O)N[C@@H](CC(=O)O)C(=O)N[C@@H](Cc1cccc2ccccc12)C(N)=O ({C18 diacid-γGlu-AEEA-AEEA}-D[sY][Nle]GW[Nle]D[1Nal]-NH2)	0.407	0.162	0.0933	0.0759				
CCCC[C@H](NC(=O)[C@H](Cc1ccc(OS(=O)(=O)O)cc1)NC(=O)[C@H](CC(=O)O)NC(=O)COCCOCCNC(=O)COCCOCCNC(=O)CC[C@H](NC(=O)CCCCCCCCCCCCCCCCC(=O)O)C(=O)O)C(=O)NCC(=O)N[C@@H](Cc1c[nH]c2ccccc12)C(=O)N[C@@H](CCCC)C(=O)N[C@@H](CC(N)=O)C(=O)N[C@@H](Cc1ccccc1)C(N)=O ({C18 diacid-γGlu-AEEA-AEEA}-D[sY][Nle]GW[Nle]NF-NH2)	5.75	11.7	309	19.1				
CCCC[C@H](NC(=O)[C@H](Cc1ccc(OS(=O)(=O)O)cc1)NC(=O)[C@H](CC(=O)O)NC(=O)COCCOCCNC(=O)COCCOCCNC(=O)CC[C@H](NC(=O)CCCCCCCCCCCCCCCCC(=O)O)C(=O)O)C(=O)NCC(=O)N[C@@H](Cc1c[nH]c2ccccc12)C(=O)N[C@@H](CCCC)C(=O)N1C[C@H](O)C[C@H]1C(=O)N[C@@H](Cc1ccccc1)C(N)=O ({C18 diacid-γGlu-AEEA-AEEA}-D[sY][Nle]GW[Nle][Hyp]F-NH2)	25.7	1.12	457	3.02				
